Data taken from US12391676B2 (H. LEE MOFFITT CANCER CENTER AND RESEARCH INSTITUTE, INC., priority 2018, dated 2025).
“Also recorded” adds a separate entry of the source. Where two headings read alike, the source gives them in different places.

Tests used:
[1] = test system: primary human hematopoietic progenitor cells; test: CFU-G/M colony formation of primary patient cells; assay type: cell-based; details: colonies after 2 weeks
Experimental: (§1) Colony formation was determined after 2 weeks and is indicated relative to no drug (DMSO).

[2] = biological target: T1, BRD4 (Homo sapiens (Human), UniProt O60885); test: BRD4 IC50; assay type: binding; details: Table 2
[3] = test system: MM1.S cells; test: Antiproliferative activity, MM1.S cells; assay type: cell-based; details: Homo sapiens
Summary of the method: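 MM.1S and MV4-11 AML cells were treated with compounds; c-Myc levels served as biomarker after 6-12 hr treatment, and antiproliferative activity was measured after 48-72 hr treatment.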

[4] = test system: UKE1 cells; test: Growth inhibition GI50, UKE1 cells; assay type: cell-based; details: UKE1, Table 2; read-out: GI50 (UKE1)
[5] = test system: UKE1 cells; test: Drug persistence of UKE1 cells under escalating drug concentration; assay type: cell-based
Experimental: UKE1 cells were incubated with DMSO, MA9-060, fedratinib, or ruxolitinib at their respective GI20 concentrations. Cell growth was compared to DMSO. Cells were passed back to the same density after counting. Drug concentration was doubled if growth was >90% of DMSO. Fold GI20 is plotted vs time, with drug persistence represented by upward steps of the lines. The final MA9-060, ruxolitinib, and fedratinib concentrations at the end of the experiment were 0.15, 0.6 and 2.4 uM, respectively. Fedratinib-treated cells lost complete viability after about 30 days (after 3 weeks in 2.4 uM).

[6] = test system: PBMCs from a JAK2-V617F+ myelofibrosis patient; test: Epo-independent erythroid colony (EEC) formation of primary MPN patient cells; details: colonies after 2 weeks, relative to DMSO, compared with fedratinib and ruxolitinib
Experimental: as §1

[7] = test system: BaF3-JAK2-V617F-luciferase cells; details: for median survival (post-treatment start): treated for 14 days
Experimental: Vehicle control and MA9-060 were administered orally twice daily at the indicated doses to Balb/c mice injected with BaF3-JAK2-V617F-luciferase cells. Mice were imaged for luciferase activity before (Day 0) and after 7 days of treatment (Tx) (FIG. 3A) with the mean total flux from target cells shown in (FIG. 3B).

[8] = biological target: JAK2 (Homo sapiens (Human), UniProt O60674); test: JAK2 IC50; assay type: biochemical; details: Table 2
JAK2, sequence (O60674 whole entry): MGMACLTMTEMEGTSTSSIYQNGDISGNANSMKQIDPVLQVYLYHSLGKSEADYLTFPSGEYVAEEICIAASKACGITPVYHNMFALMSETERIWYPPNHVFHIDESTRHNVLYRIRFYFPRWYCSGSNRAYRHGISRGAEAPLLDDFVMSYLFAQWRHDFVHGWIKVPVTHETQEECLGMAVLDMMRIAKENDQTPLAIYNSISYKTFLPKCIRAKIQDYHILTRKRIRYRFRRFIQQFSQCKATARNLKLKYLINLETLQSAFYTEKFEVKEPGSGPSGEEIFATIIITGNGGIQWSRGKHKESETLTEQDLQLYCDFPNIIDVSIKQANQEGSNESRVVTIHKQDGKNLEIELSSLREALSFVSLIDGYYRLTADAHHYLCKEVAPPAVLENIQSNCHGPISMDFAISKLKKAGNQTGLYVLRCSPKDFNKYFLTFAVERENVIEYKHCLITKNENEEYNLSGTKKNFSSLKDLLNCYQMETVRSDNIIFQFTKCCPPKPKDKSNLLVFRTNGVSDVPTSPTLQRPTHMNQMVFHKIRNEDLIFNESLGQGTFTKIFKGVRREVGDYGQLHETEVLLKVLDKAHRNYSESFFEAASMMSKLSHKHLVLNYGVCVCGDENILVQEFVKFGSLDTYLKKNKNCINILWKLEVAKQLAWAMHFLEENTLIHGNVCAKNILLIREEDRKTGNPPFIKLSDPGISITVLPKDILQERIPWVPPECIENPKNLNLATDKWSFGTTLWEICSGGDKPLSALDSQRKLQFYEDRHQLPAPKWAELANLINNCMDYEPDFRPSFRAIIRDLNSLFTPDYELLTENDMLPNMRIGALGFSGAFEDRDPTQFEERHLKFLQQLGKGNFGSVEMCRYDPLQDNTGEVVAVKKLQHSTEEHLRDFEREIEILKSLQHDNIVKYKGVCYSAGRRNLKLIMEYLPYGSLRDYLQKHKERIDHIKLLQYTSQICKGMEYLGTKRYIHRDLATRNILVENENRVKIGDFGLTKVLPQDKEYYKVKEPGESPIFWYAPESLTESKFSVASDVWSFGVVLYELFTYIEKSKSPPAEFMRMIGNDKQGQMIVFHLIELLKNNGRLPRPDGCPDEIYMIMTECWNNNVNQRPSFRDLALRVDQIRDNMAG

[9] = biological target: T1, BRD4; test: BRD4 DSF thermal shift (ΔTm); assay type: binding
[10] = test system: c-Myc; details: background, literature; cited from earlier work
[11] = test system: MV4-11 AML cells; details: background, literature; read-out: IC50, proliferation of MV4-11 AML cells; cited from earlier work
[12] = Human microsome stability; assay type: in vitro ADME; details: Table 1 comments; meaning of % not stated
[13] = test system: SET2 cells; test: Growth inhibition GI50, SET2 cells; assay type: cell-based; details: Homo sapiens, SET-2; Table 1 comments; unit printed only for the neighbouring values in the cell
[14] = Mouse microsome stability; assay type: in vitro ADME; details: Table 1 comments; meaning of % not stated
[15] = test system: BaF3-JAK2-VF cells; test: Growth inhibition GI50, BaF3-JAK2-VF cells; assay type: cell-based; details: Table 1 comments

SMILES: Cc1cnc(Nc2ccc(C3CCN(C)CC3)c(F)c2)nc1Nc1ccc(Cl)c(NS(=O)(=O)C(C)(C)C)c1 [MA9-060, N-(2-Chloro-5-((2-((3-fluoro-4-(1-methylpiperidin-4-yl)phenyl)amino)-5-methylpyrimidin-4-yl)amino)phenyl)-2-methylpropane-2-sulfonamide]
- effect on CFU-G/M colony growth [1]: not affected; also recorded: Little effect
- IC50 [2]: 26 nM
- GI50 ([3]; Table 2, read-out: GI50 (MM1S)): 43 nM
- GI50 [4]: 150 nM
- development of drug persistence ([5]; UKE1 cells started at GI20, concentration doubled if growth >90% of DMSO): do not develop drug persistence; also recorded: could not escape a low concentration
- final drug concentration at the end of the experiment ([5]; UKE1 cells, drug persistence experiment): 0.15 µM
- inhibition of Epo-independent (neoplastic) erythroid colony (EEC) formation [6]: more effective than Fedratinib or Ruxolitinib; also recorded: superior to fedratinib and ruxolitinib
- median survival (post-treatment start) ([7]; 10 mg/kg orally twice daily): 19 days
- median survival (post-treatment start) ([7]; 25 mg/kg orally twice daily): 26 days
- toxicity ([7]; 25 mg/kg twice daily orally): No toxicity was detected
- median survival (post-treatment start) ([7]; 50 mg/kg orally twice daily): 31 days
- inhibition of BaF3-JAK2-V617F-luciferase cells in Balb/c mice ([7]; oral, twice daily, luciferase imaging): dose-dependent inhibition
- IC50 [8]: 3.3 nM
- BRD4 DSF (ΔTm) ([9]; Table 2): 14.5 °C

SMILES: Cc1cnc(Nc2ccc(OCCN3CCCC3)cc2)nc1Nc1cccc(S(=O)(=O)NC(C)(C)C)c1 [TG101348]
- downregulation of c-Myc in MM.1S cells [10]: strong downregulation
- IC50 [11]: 79 nM

SMILES: Cc1cnc(Nc2ccc(C3CCN(C)CC3)c(F)c2)nc1Nc1ccc(Cl)c(NS(=O)(=O)C(C)(C)C)c1 [drawing 9]
- Human microsome [12]: 42.6%
- IC50 ([3]; Table 1 comments): 43 nM
- GI50 [13]: 54 nM
- Mouse microsome [14]: 100%
- DSF ΔTm ([9]; Table 1): 14.2 °C
- GI50 [15]: 28 nM
